Results from PMC5979466, “Allosteric Activation of GDP-Bound Ras Isoforms by Bisphenol Derivative Plasticisers” (International Journal of Molecular Sciences, 2018).
Where two headings read alike, the source gives them in different places.

Legend:
K-Ras4B bound to GDP [1] = target: T1, K-Ras4B bound to GDP (Homo sapiens, UniProt P01116); experiment: NMR titration (1H-15N HSQC chemical shift perturbation) of GDP-bound K-Ras4B; format: binding
T1 construct: made in house; host or cells: E. coli
Description: The NMR titration experiments, resonance assignments, and data handling were performed as previously published. Spectra were acquired on Bruker DRX 600 and AVANCE III HD 700 spectrometers, except for ^19F NMR spectra that were recorded on a Bruker DPX 250 spectrometer at 235 MHz. The reference experiment for the competitive titration of ^14N SOS^cat and BPAF to ^15N-enriched GDP-bound K-Ras4B was acquired in the presence of 0.2 mM BPAF in PBS at pH 7.4.

Hela cells = experiment: MTT cytotoxicity assay; format: cell-based; conditions: Homo sapiens, Hela cells exposed for 72 hrs
Description: Hela cells were used to determine IC50 values for different bisphenols. Therefore cells (1100 cells/well) were seeded in 96 well plates. 24 h after seeding cells were treated with individual bisphenols or corresponding DMSO in indicated concentrations up to 72 h. Subsequently, 10 μL of a MTT stock solution (5 mg/mL) were added to each well for 4 h. The mixture was removed carefully via pipetting, and the remaining formazan crystals formed were dissolved by 100 μL DMSO/10% SDS/0.01 M acetic acid for 15 min. The absorbance (570 nm and reference 620 nm) was determined using an absorbance reader and blank values were subtracted. Prism 6 (GraphPad Software, La Jolla, CA, USA) was used to calculate IC50 values.

K-Ras4B [2] = target: T2, K-Ras4B (Homo sapiens, UniProt P01116); set-up: made in house; host or cells: E. coli (given for K-Ras4B only); method as in PMID 26867649; conditions: cited from earlier work
GDP-bound K-Ras4B = target: T3, GDP-bound K-Ras4B (Homo sapiens, UniProt P01116); experiment: Shift of Y157 amide NMR resonance towards active GppNHp-bound state; format: binding; conditions: saturated ligand-protein complex
T3 construct: made in house; host or cells: E. coli
Description: (§1) The NMR titration experiments, resonance assignments, and data handling were performed as previously published. Spectra were acquired on Bruker DRX 600 and AVANCE III HD 700 spectrometers, except for ^19F NMR spectra that were recorded on a Bruker DPX 250 spectrometer at 235 MHz. The reference experiment for the competitive titration of ^14N SOS^cat and BPAF to ^15N-enriched GDP-bound K-Ras4B was acquired in the presence of 0.2 mM BPAF in PBS at pH 7.4. Upon titration of ^14N SOS^cat to a 0.4 mM sample of GDP-bound ^15N-enriched K-Ras4B, line broadening and/or disappearance of NMR resonances for GDP-loaded K-Ras4B bound to SOS^cat is observed probably due to rotational correlation effects of the approx. 80 kDa protein-protein complex. Line broadening can already be detected in 2D ^1H-^15N HSQC spectra of ^14N SOS^cat:^15N-enriched GDP-bound K-Ras4B at a molar ratio of 1:1, and this effect is more pronounced when extra SOS^cat is added to adjust a molar ratio of 1:2. Addition of an increasing amount of BPAF to the 1:2 ^15N-enriched K-Ras4B/^14N SOS^cat complex (1:2:0.5, 1:2:1, 1:2:4) recovers the backbone amide proton NMR resonances in 2D ^1H-^15N HSQC spectra. The acquired NMR spectrum is similar to the ^15N-enriched GDP-bound K-Ras4B:BPAF ^1H-^15N HSQC spectrum.

K-Ras4B [3] = target: T2, K-Ras4B; experiment: SOScat-catalysed guanine nucleotide exchange assay (mant-GDP fluorescence); format: biochemical; set-up: made in house; host or cells: E. coli (given for K-Ras4B only)
Description: (§2) The SOS^cat assay was performed as described. Briefly, a solution of 1 µM Ras*mantGDP, 200 µM GDP was mixed with different concentrations of BPNH2 and incubated at 20 °C for 5–10 min. To prevent insolubility of the BPNH2, 5% v/v DMSO was applied. After adding 0.5 µM of SOS^cat, a fluorescence spectrum was recorded with a Perkin Elmer LS50B instrument applying an excitation wavelength of 366 nm and an emission wavelength of 442 nm. The kobs value describing the dissociation rate of the nucleotide is obtained for each BPNH2 concentration from a single exponential fit to the fluorescence time course. The GDI (guanine nucleotide dissociation inhibitor) assay is carried out similar to the SOS^cat assay: Instead of mantGDP, the non-hydrolysable GTP analogue mantGppNHp is used but no SOS^cat is added here. Again, the dissociation of the fluorescent nucleotide from Ras in the presence of various BPNH2 concentrations is detected by the decrease of fluorescence and the time dependence yields the kobs values. A plot of the kobs values versus BPNH2 concentration fitted by a binding isotherm yields the KD value of the BPNH2 complex (Figure 4 and Figure S7).

[4] = target: T4, GDP-bound K-Ras4B/SOS^cat complex (Homo sapiens, UniProt P01116); experiment: Competitive NMR titration of 15N K-Ras4B with 14N SOScat and ligand; format: binding; conditions: BPAF added to 1:2 K-Ras4B/SOScat complex, recovery of resonances
T4 construct: made in house; host or cells: E. coli (given for K-Ras4B only)
Description: as §1

N-Ras (1-170) = target: T5, N-Ras (1-170) (Homo sapiens, UniProt P01111); experiment: NMR-based titration of N-Ras; format: binding
T5 construct: For N-Ras (1-170), we also observed a similar pattern of CSPs; made in house

H-Ras = target: T6, H-Ras (Homo sapiens, UniProt P01112); experiment: NMR-based titration of H-Ras; format: binding
T6 construct: made in house; host or cells: E. coli

Ras = experiment: G-LISA Ras activation assay; format: cell-based; conditions: serum-starved HEK293T cells, BPAF 20 µM, 1, 2, 4 h
Description: (§3) G-LISA Ras activation assay was performed as described before. Briefly, HEK293T cells were seeded in 10-cm dishes followed by overnight incubation and afterwards serum-starved for 16 h. Cells were then treated with individual bisphenols (BPAF [20 µM] and BPNH2 [33 µM]) or DMSO (control, Ctrl) in a time-dependent manner (1, 2, 4 h), subsequently lysed and the protein concentration was determined using Precision RedTM Advanced Protein Assay Reagent. Quantitative analysis of active Ras was performed with a G-LISA Ras activation assay (Cytoskeleton, Inc., Denver CO, USA) using 1 mg/mL of the sample. The signal intensity was determined by measuring absorbance at 490 nm using a microplate spectrophotometer. Additionally, these lysates were subjected to western blot analysis in order to determine the activation of ERK and AKT signalling. To test for statistical significance, a two-tailed Student’s t-test was applied using Prism version 5.0 (GraphPad Software, La Jolla, CA, USA).

AKT kinase = experiment: Western blot of AKT phosphorylation (pAKT/total AKT); format: cell-based; conditions: serum-starved HEK293T cells, BPAF 20 µM, BPNH2 33 µM
Description: as §3

K-Ras4B [5] = target: T2, K-Ras4B; experiment: GDI (guanine nucleotide dissociation inhibition) assay with mantGppNHp; format: biochemical; set-up: made in house; host or cells: E. coli
Description: as §2
Supporting Figure 7. GDI assay carried out in triplicate (black, red, green; upper panel): The GDI (guanine nucleotide dissociation inhibitor) assay is carried out similar to the SOScat assay: Instead of mantGDP, the non-hydrolysable GTP analogue mantGppNHp is used but no SOScat is added here. Again, the dissociation of the fluorescent nucleotide from Ras in the presence of various
BPNH2 concentrations is detected by the decrease of fluorescence and the time dependence yields the kobs values. A plot of the kobs values versus BPNH2 concentration fitted by a binding isotherm yields the KD value of the BPNH2 complex (please also refer to […]
MTT cytotoxicity assay (lower four panels): The IC50 values in Hela cells exposed for 72 hrs to BPs were determined as follows: 53.79 […]
(1 picture or pasted object on this page, not shown here)

ERK = experiment: Western blot of ERK phosphorylation (pERK/total ERK); format: cell-based; conditions: serum-starved HEK293T cells, BPAF 20 µM, BPNH2 33 µM
Description: as §3

Rap-1A = target: T7, Rap-1A (Homo sapiens, UniProt P62834); experiment: NMR titration of Rap-1A; format: binding; conditions: up to a BPAF concentration of 5 mM
T7 construct: Rap1A comprising residues 1–170 were expressed in E. coli; made in house; host or cells: E. coli
T7 sequence (P62834 1-170): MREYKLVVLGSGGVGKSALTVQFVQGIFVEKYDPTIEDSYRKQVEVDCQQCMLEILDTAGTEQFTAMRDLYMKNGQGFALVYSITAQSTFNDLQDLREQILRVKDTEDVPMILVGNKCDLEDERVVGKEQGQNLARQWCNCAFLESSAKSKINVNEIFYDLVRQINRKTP

[6] = Solubility of the ligands in the NMR study; conditions: NMR study samples
K-Ras4B bound to GDP [7] = target: T1, K-Ras4B bound to GDP; conditions: NMR titration, cited from earlier work
[8] = NMR titration, GDP-bound 15N-enriched K-Ras4B

## Oc1ccc(C(F)(F)F)cc1 [AFX, 4-(Trifluoromethyl)phenol, reference compound]
K-Ras4B bound to GDP [1]; [8]
  Kd: > 50000 µM

## CC(C)(c1ccc(O)cc1)c1ccc(O)cc1 [BPA, 2,2-Bis(4-hydroxyphenyl)propane]
Hela cells
  IC50: 53.8 µM
K-Ras4B [2]
  interference with GEF (Sos)-mediated nucleotide exchange from GDP to GTP: can interfere
GDP-bound K-Ras4B
  shift of Y157 amide resonance relative to the frequency in the active GppNHp-bound state: 49%

## Oc1ccc(C(c2ccc(O)cc2)(C(F)(F)F)C(F)(F)F)cc1 [BPAF, 2,2-Bis(4-hydroxyphenyl)hexafluoropropane]
K-Ras4B [3]
  interference with the SOScat mediated nucleotide exchange: interfere
[4]
  antagonism of the interaction between GDP-bound K-Ras4B and SOScat: can antagonise
N-Ras (1-170)
  Kd: 770 ± 20 µM
Hela cells
  IC50: 17.8 µM
H-Ras
  Kd: 400 ± 20 µM
Ras
  Ras activity (G-LISA): significant and time-dependent augmentation of Ras activity
AKT kinase
  level of phosphorylated AKT kinase (pAKT): slightly elevated levels of phosphorylated AKT kinase (pAKT) after 2 h
K-Ras4B [5]
  GDI-effect (inhibition of nucleotide dissociation): no or only a very small effect
GDP-bound K-Ras4B
  shift of Y157 amide resonance relative to the frequency in the active GppNHp-bound state: 58%
ERK
  level of ERK phosphorylation / Ras signalling via c-Raf kinase: increased the level of ERK phosphorylation
Rap-1A
  chemical shift perturbations (CSPs) on titration: could not be detected
K-Ras4B bound to GDP [1]; [8]
  Kd: 350 ± 20 µM
K-Ras4B bound to GDP [1]; calculated from six binding pocket residues (L6, V9, Y40, L56, T74, G75), Fig. S1
  Kd: 347 ± 5 µM

## CC(c1ccccc1)(c1ccc(O)cc1)c1ccc(O)cc1 [BPAP, 4,4′-(1-Phenylethylidene)bisphenol]
[6]
  solubility comment: insoluble

## CCC(C)(c1ccc(O)cc1)c1ccc(O)cc1 [BPB, 2,2-Bis(4-hydroxyphenyl)butane]
K-Ras4B bound to GDP [1]; [8]
  Kd: 3600 µM

## Oc1ccc(C(c2ccccc2)(c2ccccc2)c2ccc(O)cc2)cc1 [BPBP, Bis(4-hydroxyphenyl)diphenylmethane]
[6]
  solubility comment: insoluble

## CC(c1ccc(O)cc1)c1ccc(O)cc1 [BPE, 1,1-Bis(4-hydroxyphenyl)ethane]
K-Ras4B bound to GDP [1]; [8]
  Kd: 6500 µM

## Oc1ccc(Cc2ccc(O)cc2)cc1 [BPF, 4,4′-Methylenediphenol]
K-Ras4B bound to GDP [1]; [8]
  Kd: 14000 µM

## Oc1ccc(C2(c3ccc(O)cc3)c3ccccc3-c3ccccc32)cc1 [BPFL, 4,4′-(9-Fluorenylidene)diphenol]
[6]
  solubility comment: insoluble

## Nc1cc(C(c2ccc(O)c(N)c2)(C(F)(F)F)C(F)(F)F)ccc1O [BPNH2, 2,2-Bis(3-amino-4-hydroxyphenyl)hexafluoropropane]
K-Ras4B [3]
  interference with the SOScat mediated nucleotide exchange: interfere
K-Ras4B [3]; kobs of mGDP dissociation versus ligand concentration, 0.5 µM SOScat, 20 °C, 5% DMSO, read-out: KD from SOScat-assay
  Kd: 200 ± 100 µM
Hela cells
  IC50: 33 µM
AKT kinase
  level of phosphorylated AKT kinase (pAKT): clearly be detected already after 1 h
K-Ras4B [5]
  GDI-effect (inhibition of nucleotide dissociation): significant GDI-effect
K-Ras4B [5]; mantGppNHp, no SOScat, triplicate, read-out: KD from GDI-assay
  Kd: 340 ± 20 µM
GDP-bound K-Ras4B
  shift of Y157 amide resonance relative to the frequency in the active GppNHp-bound state: approx. 64%
ERK
  level of ERK phosphorylation / Ras signalling via c-Raf kinase: failed to activate
K-Ras4B bound to GDP [1]; [8]
  Kd: 400 µM

## O=S(=O)(c1ccc(O)cc1)c1ccc(O)cc1 [BPS, 4,4′-Sulfonyldiphenol]
Hela cells
  IC50: 119 µM
K-Ras4B [2]
  interference with GEF (Sos)-mediated nucleotide exchange from GDP to GTP: cannot interfere
GDP-bound K-Ras4B
  shift of Y157 amide resonance relative to the frequency in the active GppNHp-bound state: 20%
K-Ras4B bound to GDP [7]; listed as S
  Kd: 6000 ± 700 µM
K-Ras4B bound to GDP [7]
  Kd: 5800 µM
